According to patent US6689609B1, “Enhancing germination of plant somatic embryos by priming” (Cellfor Inc., priority 1999, dated 2004):
Like-named read-outs stand apart in the source and are kept apart here.

Legend:
[1] = system: interior spruce somatic embryos; type: in vivo, Picea glauca (Moench) Voss x P. engelmannii Parry ex Engelm.
Source text: The second study assessed the effects adding various osmotica to nutripriming solutions on subsequent germination and development performance. Mature somatic embryos of interior spruce (Picea glauca (Moench) Voss x P. engelmannii Parry ex Engelm.) genotype 23-2672 were desiccated with the HRHT treatment, and then divided into 10 groups of 160 somatic embryos per group. One group was not primed and served as the HRHT control treatment for this study. […] The nutripriming solutions and embryos were placed into 250-ml Kimax® baffled flasks. The nutripriming duration was 72 hrs at temperatures ranging between 20-23° C., and a 24-hr photoperiod of 30 μmol m^−2s^−1 photosynthetic photon flux.
At the completion of the nutripriming step, the nutriprimed embryos from each treatment were divided into 8 groups of 20 embryos and sown by hand onto vermiculite media in Sigma polycarbonate boxes. The liquid media in these germination boxes were either 3% w/v sucrose m24GMD or m24GMD without sucrose. The experiment design was a random complete block design for each media type. Each nutripriming treatment had 4 replicates of 20 embryos in each germination media type. The germination boxes were placed in a germination room and grown for two weeks under 50-70 μmol m^−2s^−1 photosynthetic photon flux of 16-hour photoperiod at an air temperature of 23° C. The germinants were then harvested and assessed for germination rates, hyperhydricity rates, shoot and root length. Germination was defined as germinants having a root longer than 2 mm, and elongated hypercotyl. Hyperhydricity was defined by the thickening of hypercotyl and watery appearance of the germinants, whether germinated or not germinated.

[2] = system: interior spruce somatic embryos; experiment: Elevated sucrose levels (4-10% w/v) and extended nutripriming (3-5 days): ex vitro germination and growth of interior spruce genotypes 5-1378 and 107-2049; type: in vivo, Picea glauca (Moench) Voss x P. engelmannii Parry ex Engelm.
Description: Mature somatic embryos of interior spruce (Picea glauca (Moench) Voss x P. engelmannii Parry ex Engelm.) genotypes 5-1378 and 107-2049 t were desiccated with the HRHT treatment and stored at 4° C. Embryos were subsequently removed from storage and nutriprimed for one of 3, 4, or 5 days periods as previously described in ½ m24GMD liquid medium containing one of the following sucrose concentrations; 4, 6, 8, and 10% (all w/v). After the nutripriming treatments were completed, the embryos were sown ex vitro onto a peat-based polymer-bound horticultural growing substrate in 504-cell (4 ml/cell) styrofoam miniplug trays (Grow-Tech Inc., San Bautista, Calif.). The sown trays were then placed into a conventional non-sterile horticulture germination chamber in an environment-controlled growth room. The environmental conditions were 22-24° C. air temperature, 80-100% RH, 0.10-0.15% CO2, and a 16-hr photoperiod with 40-120 μmol m^−2s^−1 photosynthetic photon flux. Immediately after the trays containing ex vitro sown nutriprimed embryos were placed into the non-sterile germination chamber, they were misted with a ½ m24GMD nutrient solution amended with 3% w/v sucrose solution until the surfaces of the non-sterile growing substrates were well-wetted. Subsequently, the trays were misted with this solution daily for a 3-week germination period. Aseptic techniques or conditions were not used for application of the nutrient solutions, nor for the germination environment during the 2-week culture period. Furthermore, prophylactic applications of 0.1 g/l benlate, 0.05 g/l ampicillin plus 0.05 g/l penicillin G (or 0.1 ampicillin), and 5 ml/l Gnatrol® were applied at 5-day intervals to control fungi, bacteria, and fungus fly larvae.

[3] = germination media m24GMD (without sucrose), osmoticant levels as E220
[4] = germination media m24GMD plus 3% sucrose, osmoticant levels as E220
[5] = genotype 5-1378, 3% sucrose in nutripriming solution, 3 days priming
[6] = genotype 5-1378, 4% sucrose in nutripriming solution, 3 days priming
[7] = genotype 5-1378, 4% sucrose in nutripriming solution, 4 days priming
[8] = genotype 5-1378, 4% sucrose in nutripriming solution, 5 days priming
[9] = genotype 5-1378, 6% sucrose in nutripriming solution, 3 days priming
[10] = genotype 5-1378, 6% sucrose in nutripriming solution, 4 days priming
[11] = genotype 5-1378, 6% sucrose in nutripriming solution, 5 days priming
[12] = genotype 5-1378, 8% sucrose in nutripriming solution, 3 days priming
[13] = genotype 5-1378, 8% sucrose in nutripriming solution, 4 days priming
[14] = genotype 5-1378, 8% sucrose in nutripriming solution, 5 days priming
[15] = genotype 5-1378, 10% sucrose in nutripriming solution, 3 days priming
[16] = genotype 5-1378, 10% sucrose in nutripriming solution, 4 days priming
[17] = genotype 5-1378, 10% sucrose in nutripriming solution, 5 days priming
[18] = genotype 107-2049, 3% sucrose in nutripriming solution, 3 days priming
[19] = genotype 107-2049, 4% sucrose in nutripriming solution, 3 days priming
[20] = genotype 107-2049, 4% sucrose in nutripriming solution, 4 days priming
[21] = genotype 107-2049, 4% sucrose in nutripriming solution, 5 days priming
[22] = genotype 107-2049, 6% sucrose in nutripriming solution, 3 days priming
[23] = genotype 107-2049, 6% sucrose in nutripriming solution, 4 days priming
[24] = genotype 107-2049, 6% sucrose in nutripriming solution, 5 days priming
[25] = genotype 107-2049, 8% sucrose in nutripriming solution, 3 days priming
[26] = genotype 107-2049, 8% sucrose in nutripriming solution, 4 days priming
[27] = genotype 107-2049, 8% sucrose in nutripriming solution, 5 days priming
[28] = genotype 107-2049, 10% sucrose in nutripriming solution, 3 days priming
[29] = genotype 107-2049, 10% sucrose in nutripriming solution, 4 days priming
[30] = genotype 107-2049, 10% sucrose in nutripriming solution, 5 days priming

## OC[C@H]1O[C@@](CO)(O[C@H]2O[C@H](CO)[C@@H](O)[C@H](O)[C@H]2O)[C@@H](O)[C@@H]1O [sucrose]
[1]; [3]
  Germination %: 91.7 ± 8.3%
  Root length: 2.4 ± 0.1 mm
  Shoot length: 14.7 ± 0.3 mm
[1]; germination media m24GMD plus 3% sucrose, osmoticant in m24GMD priming solution (w/v): 1% betaine, 1.65% fructose, glucose, mannitol, sorbitol, 3% lactose, maltose, sucrose, 10% PEG 4000, 72 hrs
  Germination %: 100%
[1]; [4]
  Root length: 11.6 ± 0.9 mm
  Shoot length: 18.1 ± 0.4 mm
[1]; in vivo
  % with hyperhydricity: 40.0 ± 23.2%
[2]; [5]
  Germination %: 83.3 ± 8.8%
  Rooting %: 73.3 ± 8.8%
[2]; [6]
  Germination %: 98.3 ± 1.7%
  Rooting %: 86.7 ± 7.3%
[2]; [7]
  Germination %: 96.7 ± 3.3%
  Rooting %: 91.7 ± 4.4%
[2]; [8]
  Germination %: 96.5 ± 1.8%
  Rooting %: 91.5 ± 6.0%
[2]; [9]
  Germination %: 91.7 ± 4.4%
  Rooting %: 86.7 ± 3.3%
[2]; [10]
  Germination %: 96.7 ± 3.3%
  Rooting %: 90.0 ± 2.9%
[2]; [11]
  Germination %: 98.3 ± 1.7%
  Rooting %: 88.3 ± 4.4%
[2]; [12]
  Germination %: 91.7 ± 4.4%
  Rooting %: 66.7 ± 12.0%
[2]; [13]
  Germination %: 100%
  Rooting %: 91.7 ± 3.3%
[2]; [14]
  Germination %: 95.0 ± 5.0%
  Rooting %: 86.7 ± 8.3%
[2]; [15]
  Germination %: 84.7 ± 2.9%
  Rooting %: 52.5 ± 7.2%
[2]; [16]
  Germination %: 100%
  Rooting %: 88.3 ± 6.0%
[2]; [17]
  Germination %: 98.3 ± 1.7%
  Rooting %: 91.7 ± 4.4%
[2]; [18]
  Germination %: 91.7 ± 4.4%
  Rooting %: 68.3 ± 6.0%
[2]; [19]
  Germination %: 90.0 ± 5.0%
  Rooting %: 71.7 ± 8.8%
[2]; [20]
  Germination %: 84.6 ± 6.2%
  Rooting %: 62.3 ± 13.0%
[2]; [21]
  Germination %: 93.3 ± 6.7%
  Rooting %: 76.2 ± 4.5%
[2]; [22]
  Germination %: 81.7 ± 3.3%
  Rooting %: 66.7 ± 3.3%
[2]; [23]
  Germination %: 85.8 ± 2.2%
  Rooting %: 69.6 ± 6.1%
[2]; [24]
  Germination %: 86.7 ± 3.3%
  Rooting %: 70.0 ± 0.0%
[2]; [25]
  Germination %: 76.7 ± 4.4%
  Rooting %: 51.7 ± 4.4%
[2]; [26]
  Germination %: 93.3 ± 4.4%
  Rooting %: 88.3 ± 4.4%
[2]; [27]
  Germination %: 93.3 ± 4.4%
  Rooting %: 60.0 ± 0.0%
[2]; [28]
  Germination %: 81.7 ± 6.7%
  Rooting %: 36.7 ± 10.1%
[2]; [29]
  Germination %: 90.0 ± 7.6%
  Rooting %: 76.7 ± 8.3%
[2]; [30]
  Germination %: 86.7 ± 1.7%
  Rooting %: 51.7 ± 12.0%
